According to US6861230B1, “Antibiotic sensitivity testing” (priority 1998, dated 2005):

Experiments:
[1] = test system: E. coli 10243 (sensitive, untransformed); assay: Adenylate kinase release (cell lysis) assay with antibiotic and phage 10359, sensitive strain; type: cell-based, Escherichia coli
Procedure: For example, in one embodiment, a sample of bacterial cells is divided into first and second samples. The first sample of bacterial cells is mixed with a solution containing ADP and a detergent in the presence of magnesium ions. This extracts the adenylate kinase from all the cells present in the sample, thus allowing the ATP generating reaction to occur. The reaction is allowed to proceed for the required time e.g. 5 minutes, after which bioluminescence reagent is added and the resulting light measured in a luminometer. An assay performed in this way determines the total amount of adenylate kinase in a sample, be it extracellular or intracellular.
The second sample is subjected to a similar assay but in the absence of detergent so that only extracellular adenylate kinase is measured. […]

[2] = test system: E. coli 10243 carrying plasmid encoding ampicillin resistance (pUC18); assay: Adenylate kinase release (cell lysis) assay with antibiotic and phage 10359, ampicillin-resistant strain; type: cell-based, Escherichia coli; conditions: log phase, 10^5 phage 10359 at T0, 50 μg/ml ampicillin at T5
Procedure: A plasmid encoding ampicillin resistance (pUC18) was introduced into a pure culture of E. coli 10243 in order to induce resistance without altering phage host specificity.
Log phase cultures of both resistant and sensitive strains of E. coli 10243 were infected with 10^5 phage 10359 at T0 and 50 μg/ml ampicillin at T5.

Row | SMILES | Cell lysis due to ampicillin (adenylate kinase release) ([1]; sensitive strain, log phase, 10^5 phage 10359 at T0, 50 μg/ml ampicillin at T5, time in min) | Effect of the antibiotic on the resistant strain (adenylate kinase release) [2] | Degree of phage mediated lysis in cultures containing the antibiotic ([1]; phage 10359 plus chloramphenicol 34 μg/ml versus phage only, 80 min) | Cell lysis with both bacteriophage and chloramphenicol compared with chloramphenicol alone ([1]; phage 10359 plus chloramphenicol 34 μg/ml, 80 min)
1 | CC1(C)S[C@@H]2[C@H](NC(=O)[C@H](N)c3ccccc3)C(=O)N2[C@H]1C(=O)O [ampicillin] | evident at T10 and significant at T20 | unaffected by the antibiotic | – | –
2 | O=C(N[C@H](CO)[C@H](O)c1ccc([N+](=O)[O-])cc1)C(Cl)Cl [chloramphenicol] | – | – | considerably less | Greater cell lysis
